Results: US11802132B2, “Small molecules for inducing selective protein degradation and uses thereof” (DANA-FARBER CANCER INSTITUTE, INC., priority 2018, dated 2023)
Entries after “also recorded” stand apart in the source; their conditions may differ.

Columns and labels:
FKBP12 = target: T1, FKBP12 (Homo sapiens, UniProt P62942); assay: FKBP12 degradation in MCF7 breast cancer cell line; type: cell-based; conditions: MCF7 WT; 3 μM; 2, 6, 16 and 24 hours
T1 construct: the cells used were MCF7 WT; endogenous in cells; host or cells: MCF7 WT
T1 sequence (P62942 whole entry): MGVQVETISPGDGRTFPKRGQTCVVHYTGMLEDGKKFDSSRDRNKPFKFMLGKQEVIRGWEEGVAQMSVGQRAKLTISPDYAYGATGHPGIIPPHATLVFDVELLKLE
Excerpt: (§1) A dimerization assay was used to detect the RPN13 and BRD4 dimerization by RAJQ9 (FIG. 40A). […] New compounds were synthesized in the series using the same conditions as RAJQ9 synthesis (See FIG. 26). It was confirmed in the BRD4 assay that the exemplary BRD4 degrader compounds (RAJQ14, RAJQ14-ester) bind to BRD4 (FIG. 44). It was observed that Myc was lost with BRD4 degraders in the MCF7 breast cancer cell line (FIG. 45). For the results shown in FIG. 45, the cells used were MCF7 WT, the exemplary BRD4 degrader compound was RAJQ14 (at 3 μM concentration), and the time points shown in the assay were 2 hours, 6 hours, 16 hours, and 24 hours. […] For the results shown in FIG. 46, the cells used were MCF7 WT, the drug was the exemplary FKBP12 degrader RAFKBP4 (at 3 μM concentration), and the time points shown in the assay were 2 hours, 6 hours, 16 hours, and 24 hours.

RPN13 and BRD4 = RPN13 and BRD4 (Homo sapiens, UniProt O60885+Q16186); assay: Dimerization assay of RPN13 and BRD4; type: binding; conditions: indicated concentrations
Chain of RPN13 and BRD4 (Q16186 whole entry, other chains not shown): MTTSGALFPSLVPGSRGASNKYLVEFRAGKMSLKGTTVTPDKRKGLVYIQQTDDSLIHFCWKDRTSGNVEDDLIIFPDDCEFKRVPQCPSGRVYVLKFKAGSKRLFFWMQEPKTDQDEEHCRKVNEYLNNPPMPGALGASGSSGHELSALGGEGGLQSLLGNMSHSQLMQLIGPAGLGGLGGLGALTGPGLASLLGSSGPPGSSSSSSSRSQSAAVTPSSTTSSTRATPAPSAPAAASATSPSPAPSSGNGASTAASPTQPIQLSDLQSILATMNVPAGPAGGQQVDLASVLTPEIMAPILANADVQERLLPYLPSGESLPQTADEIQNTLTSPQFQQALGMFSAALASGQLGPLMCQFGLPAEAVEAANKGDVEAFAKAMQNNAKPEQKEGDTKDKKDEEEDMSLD
Excerpt: as §1

Row | FKBP12 degradation in MCF7 cells (FKBP12) | SMILES | RPN13 and BRD4 dimerization (RPN13 and BRD4)
1 | FKBP12 degradation | CC[C@H](C(=O)N1CCCC[C@H]1C(=O)OC(CCc1ccc(OC)c(OC)c1)c1cccc(OCC(=O)NCCOCCOCCOCCC(=O)NCCOCCN[C@@H](Cc2ccccc2)C(=O)N2C/C(=C\c3ccc(Cl)c(Cl)c3)C(=O)/C(=C/c3ccc(Cl)c(Cl)c3)C2)c1)c1cc(OC)c(OC)c(OC)c1 (some centres unmarked) [RAFKBP4] | –
2 | – | Cc1sc2c(c1C)C(c1ccc(Cl)cc1)=N[C@@H](CC(=O)NCCN1CCN(CCCCCCOc3ccc(C[C@H](N)C(=O)N4C/C(=C\c5ccc(Cl)c(Cl)c5)C(=O)/C(=C/c5ccc(Cl)c(Cl)c5)C4)cc3)CC1)c1nnc(C)n1-2 [RAJQ9] | can bring these two proteins (RPN13 and BRD4) together; also recorded: can dimerize these two proteins together
